Like-named read-outs stand apart in the source and are kept apart here.
Columns and labels:
KRas G12C = KRas G12C (Homo sapiens, UniProt P01116, C118S/C51S/C80L/G12C); assay: KRas G12C Modification Assay (LCMS detection of covalent adduct); assay type: binding; conditions: normalized percent of control; tested at 5 μM concentration for 3 hours
Method in brief: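 Cys-light KRas G12C mutant protein incubated with compound in K-Ras assay buffer, reactions quenched at set time points with 25 mM acetic acid and analysed by intact-protein LC/MS on a C-3 column. Deconvoluted mass heights expressed as percent of control (POC) relative to compound-free protein.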

[1] = system: NCI-H358 cells (express KRas G12C), Phospho-ERK; assay: Cellular inhibition of KRas G12C: Phospho-ERK in NCI-H358 cells; assay type: cell-based; conditions: pERK(Thr202/Tyr204) normalized with GAPDH, NCI-H358 cells, 3 hours, read-out: IC50
Method in brief: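 IC50 derived by 4-parameter fit of GAPDH-normalized pERK(Thr202/Tyr204) signal, as percent of DMSO control. Signal came from in-cell immunodetection with infrared secondaries after 3 h compound exposure of KRas G12C NCI-H358 cells at 0.5% DMSO.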

C=CC(=O)N1CCN(c2nc(OC[C@H]3C[C@@H](O)CN3C)nc3c2CCN(c2cccc(F)c2C(F)(F)F)C3)CC1CC#N (stereo partly drawn) [Example 415, 2-(1-acryloyl-4-(7-(3-fluoro-2-(trifluoromethyl)phenyl)-2-(((2R,4R)-4-hydroxy-1-methylpyrrolidin-2-yl)methoxy)-5,6,7,8-tetrahydropyrido[3,4-d]pyrimidin-4-yl)piperazin-2-yl)acetonitrile]
POC (KRas G12C): C (“C”>50% POC)
IC50 ([1]; Homo sapiens, NCI-H358, 3 h): 0.0001 to 1 µM

C=CC(=O)N1CCN(c2nc(OC[C@H]3C[C@H](F)CN3C)nc3c2CCN(c2cccc(F)c2C(F)(F)F)C3)CC1CC#N (stereo partly drawn) [Example 416, 2-(1-acryloyl-4-(2-(((2R,4S)-4-fluoro-1-methylpyrrolidin-2-yl)methoxy)-7-(3-fluoro-2-(trifluoromethyl)phenyl)-5,6,7,8-tetrahydropyrido[3,4-d]pyrimidin-4-yl)piperazin-2-yl)acetonitrile]
POC (KRas G12C): C (“C”>50% POC)
IC50 ([1]; Homo sapiens, NCI-H358, 3 h): 0.0001 to 1 µM

C=CC(=O)N1CCN(c2nc(OC[C@@]3(C)CCCN3C)nc3c2CCN(c2cccc(F)c2C(F)(F)F)C3)CC1CC#N (stereo partly drawn) [Example 417, 2-(1-acryloyl-4-(2-(((R)-1,2-dimethylpyrrolidin-2-yl)methoxy)-7-(3-fluoro-2-(trifluoromethyl)phenyl)-5,6,7,8-tetrahydropyrido[3,4-d]pyrimidin-4-yl)piperazin-2-yl)acetonitrile]
POC (KRas G12C): C (“C”>50% POC)
IC50 ([1]; Homo sapiens): 0.0001 to 1 µM

C=CC(=O)N1CCN(c2nc(OC[C@@H]3C[C@H](O)CN3C)nc3c2CCN(c2cccc4ccccc24)C3)CC1CC#N (stereo partly drawn) [Example 418, 2-(1-acryloyl-4-(2-(((2S,4S)-4-hydroxy-1-methylpyrrolidin-2-yl)methoxy)-7-(naphthalen-1-yl)-5,6,7,8-tetrahydropyrido[3,4-d]pyrimidin-4-yl)piperazin-2-yl)acetonitrile]
POC (KRas G12C): C (“C”>50% POC)
IC50 ([1]; Homo sapiens, NCI-H358, 3 h): 0.0001 to 1 µM

C=CC(=O)N1CCN(c2nc(OC[C@@H]3CCCN3C)nc3c2CCN(c2cccc(Cl)c2C)C3)C[C@@H]1CC#N [Example 419, 2-((S)-1-acryloyl-4-(7-(3-chloro-2-methylphenyl)-2-(((S)-1-methylpyrrolidin-2-yl)methoxy)-5,6,7,8-tetrahydropyrido[3,4-d]pyrimidin-4-yl)piperazin-2-yl)acetonitrile]
POC (KRas G12C): C (“C”>50% POC)
IC50 ([1]; Homo sapiens, NCI-H358, 3 h): 0.0001 to 1 µM

C=CC(=O)N1CCN(c2nc(OC[C@@H]3CCCN3C)nc3c2CCN(c2cccc(Cl)c2Cl)C3)C[C@@H]1CC#N [Example 420, 2-((S)-1-acryloyl-4-(7-(2,3-dichlorophenyl)-2-(((S)-1-methylpyrrolidin-2-yl)methoxy)-5,6,7,8-tetrahydropyrido[3,4-d]pyrimidin-4-yl)piperazin-2-yl)acetonitrile]
POC (KRas G12C): C (“C”>50% POC)
IC50 ([1]; Homo sapiens, NCI-H358, 3 h): 0.0001 to 1 µM

C=CC(=O)N1CCN(c2nc(OC[C@@H]3CCCN3C)nc3c2CCN(c2cccc(Cl)c2OC)C3)C[C@@H]1CC#N [Example 421, 2-((S)-1-acryloyl-4-(7-(3-chloro-2-methoxyphenyl)-2-(((S)-1-methylpyrrolidin-2-yl)methoxy)-5,6,7,8-tetrahydropyrido[3,4-d]pyrimidin-4-yl)piperazin-2-yl)acetonitrile]
POC (KRas G12C): C (“C”>50% POC)
IC50 ([1]; Homo sapiens, NCI-H358, 3 h): 0.0001 to 1 µM

CN(C)C/C=C/C(=O)N1CCN(c2nc(OC[C@H]3CCCN3C)nc3c2CCN(c2cccc(Cl)c2C(F)(F)F)C3)C[C@@H]1CC#N [Example 422, 2-((S)-4-(7-(3-chloro-2-(trifluoromethyl)phenyl)-2-(((R)-1-methylpyrrolidin-2-yl)methoxy)-5,6,7,8-tetrahydropyrido[3,4-d]pyrimidin-4-yl)-1-((E)-4-(dimethylamino)but-2-enoyl)piperazin-2-yl)acetonitrile]
POC (KRas G12C): C (“C”>50% POC)
IC50 ([1]; Homo sapiens, NCI-H358, 3 h): 0.0001 to 1 µM

C=CC(=O)N1CCN(c2nc(OC[C@@H]3CCCN3C)nc3c2CCN(c2ccc(F)c(C)c2C)C3)C[C@@H]1CC#N [Example 423, 2-((S)-1-acryloyl-4-(7-(4-fluoro-2,3-dimethylphenyl)-2-(((S)-1-methylpyrrolidin-2-yl)methoxy)-5,6,7,8-tetrahydropyrido[3,4-d]pyrimidin-4-yl)piperazin-2-yl)acetonitrile]
POC (KRas G12C): C (“C”>50% POC)
IC50 ([1]; Homo sapiens, NCI-H358, 3 h): 0.0001 to 1 µM

C=CC(=O)N1CCN(c2nc(OC[C@@H]3CCCN3C)nc3c2CCN(c2cccc(C)c2Cl)C3)C[C@@H]1CC#N [Example 424, 2-((S)-1-acryloyl-4-(7-(2-chloro-3-methylphenyl)-2-(((S)-1-methylpyrrolidin-2-yl)methoxy)-5,6,7,8-tetrahydropyrido[3,4-d]pyrimidin-4-yl)piperazin-2-yl)acetonitrile]
POC (KRas G12C): C (“C”>50% POC)
IC50 ([1]; Homo sapiens, NCI-H358, 3 h): 0.0001 to 1 µM

C=CC(=O)N1CCN(c2nc(OC[C@@H]3C[C@@H](O)CN3C)nc3c2CCN(c2cccc(Cl)c2C(F)(F)F)C3)C[C@@H]1CC#N [Example 425, 2-((S)-1-acryloyl-4-(7-(3-chloro-2-(trifluoromethyl)phenyl)-2-(((2S,4R)-4-hydroxy-1-methylpyrrolidin-2-yl)methoxy)-5,6,7,8-tetrahydropyrido[3,4-d]pyrimidin-4-yl)piperazin-2-yl)acetonitrile]
POC (KRas G12C): C (“C”>50% POC)
IC50 ([1]; Homo sapiens, NCI-H358, 3 h): 0.0001 to 1 µM

CN(C)C/C=C/C(=O)N1CCN(c2nc(OC[C@@H]3CCCN3C)nc3c2CCN(c2cccc(Cl)c2C(F)(F)F)C3)C[C@@H]1CC#N [Example 426, 2-((S)-4-(7-(3-chloro-2-(trifluoromethyl)phenyl)-2-(((S)-1-methylpyrrolidin-2-yl)methoxy)-5,6,7,8-tetrahydropyrido[3,4-d]pyrimidin-4-yl)-1-((E)-4-(dimethylamino)but-2-enoyl)piperazin-2-yl)acetonitrile]
POC (KRas G12C): C (“C”>50% POC)
IC50 ([1]; Homo sapiens, NCI-H358, 3 h): 0.0001 to 1 µM

C=CC(=O)N1CCN(c2nc(OC[C@@H]3CCCN3C)nc3c2CCN(c2cccc(Cl)c2C(F)(F)F)C3)C[C@@H]1CC#N [Example 427, 2-((S)-1-acryloyl-4-(7-(3-chloro-2-(trifluoromethyl)phenyl)-2-(((S)-1-methylpyrrolidin-2-yl)methoxy)-5,6,7,8-tetrahydropyrido[3,4-d]pyrimidin-4-yl)piperazin-2-yl)acetonitrile]
POC (KRas G12C): C (“C”>50% POC)
IC50 ([1]; Homo sapiens, NCI-H358, 3 h): 0.0001 to 1 µM

C=CC(=O)N1CCN(c2nc(OC[C@@H]3CCCN3C)nc3c2CCN(c2cccc4ccccc24)C3)CC1COC (stereo partly drawn) [Example 428, 1-(2-(methoxymethyl)-4-(2-(((S)-1-methylpyrrolidin-2-yl)methoxy)-7-(naphthalen-1-yl)-5,6,7,8-tetrahydropyrido[3,4-d]pyrimidin-4-yl)piperazin-1-yl)prop-2-en-1-one]
POC (KRas G12C): C (“C”>50% POC)
IC50 [1]: > 1 µM

C=CC(=O)N1CCN(c2nc(OC[C@@H]3CCCN3C)nc3c2CCN(c2cccc4ccncc24)C3)C[C@@H]1CC#N [Example 429, 2-((S)-1-acryloyl-4-(7-(isoquinolin-8-yl)-2-(((S)-1-methylpyrrolidin-2-yl)methoxy)-5,6,7,8-tetrahydropyrido[3,4-d]pyrimidin-4-yl)piperazin-2-yl)acetonitrile]
POC (KRas G12C): C (“C”>50% POC)
IC50 ([1]; Homo sapiens, NCI-H358, 3 h): 0.0001 to 1 µM

C=CC(=O)N1CCN(c2nc(OC[C@@H]3CCCN3C)nc3c2CCN(c2nncc4ccccc24)C3)C[C@@H]1CC#N [Example 430, 2-((S)-1-acryloyl-4-(2-(((S)-1-methylpyrrolidin-2-yl)methoxy)-7-(phthalazin-1-yl)-5,6,7,8-tetrahydropyrido[3,4-d]pyrimidin-4-yl)piperazin-2-yl)acetonitrile]
POC (KRas G12C): C (“C”>50% POC)
IC50 ([1]; Homo sapiens, NCI-H358, 3 h): > 1 µM

C=CC(=O)N1CCN(c2nc(OC[C@H]3CCCCN3C)nc3c2CCN(c2cccc4ccccc24)C3)C[C@@H]1CC#N [Example 431, 2-((S)-1-acryloyl-4-(2-(((R)-1-methylpiperidin-2-yl)methoxy)-7-(naphthalen-1-yl)-5,6,7,8-tetrahydropyrido[3,4-d]pyrimidin-4-yl)piperazin-2-yl)acetonitrile]
POC (KRas G12C): C (“C”>50% POC)
IC50 ([1]; Homo sapiens, NCI-H358, 3 h): 0.0001 to 1 µM

C=CC(=O)N1CCN(c2nc(OC[C@@H]3CCCN3C)nc3c2CCN(c2cccc4ccccc24)C3)C[C@@H]1CCOC [Example 432, 1-((S)-2-(2-methoxyethyl)-4-(2-(((S)-1-methylpyrrolidin-2-yl)methoxy)-7-(naphthalen-1-yl)-5,6,7,8-tetrahydropyrido[3,4-d]pyrimidin-4-yl)piperazin-1-yl)prop-2-en-1-one]
POC (KRas G12C): C (“C”>50% POC)
IC50 ([1]; Homo sapiens, NCI-H358, 3 h): > 1 µM

C=CC(=O)N1CCN(c2nc(OC[C@@H]3CCCN3C)nc3c2CCN(c2cccc4cccc(C(F)(F)F)c24)C3)C[C@@H]1CC#N [Example 433, 2-((S)-1-acryloyl-4-(2-(((S)-1-methylpyrrolidin-2-yl)methoxy)-7-(8-(trifluoromethyl)naphthalen-1-yl)-5,6,7,8-tetrahydropyrido[3,4-d]pyrimidin-4-yl)piperazin-2-yl)acetonitrile]
POC (KRas G12C): C (“C”>50% POC)
IC50 ([1]; Homo sapiens, NCI-H358, 3 h): 0.0001 to 1 µM

C=CC(=O)N1CCN(c2nc(OC[C@@H]3CCCN3C)nc3c2CCN(c2cccc4ccn(C)c24)C3)C[C@@H]1CC#N [Example 434, 2-((S)-1-acryloyl-4-(7-(1-methyl-1H-indol-7-yl)-2-(((S)-1-methylpyrrolidin-2-yl)methoxy)-5,6,7,8-tetrahydropyrido[3,4-d]pyrimidin-4-yl)piperazin-2-yl)acetonitrile]
POC (KRas G12C): C (“C”>50% POC)
IC50 ([1]; Homo sapiens, NCI-H358, 3 h): 0.0001 to 1 µM
